Data published in ChEMBL document CHEMBL4739716, “Gpr139 receptor modulators” (2020).

Assays:
[1] = target: T1, Probable G-protein coupled receptor 139 (Homo sapiens, UniProt Q6DWJ6); experiment: Agonist activity at human GPR139 expressed in CHO-K1 cells assessed as increase in calcium flux by calcium 5 dye based FLIPR assay; assay type: functional, cell-based
T1 sequence (Q6DWJ6 whole entry): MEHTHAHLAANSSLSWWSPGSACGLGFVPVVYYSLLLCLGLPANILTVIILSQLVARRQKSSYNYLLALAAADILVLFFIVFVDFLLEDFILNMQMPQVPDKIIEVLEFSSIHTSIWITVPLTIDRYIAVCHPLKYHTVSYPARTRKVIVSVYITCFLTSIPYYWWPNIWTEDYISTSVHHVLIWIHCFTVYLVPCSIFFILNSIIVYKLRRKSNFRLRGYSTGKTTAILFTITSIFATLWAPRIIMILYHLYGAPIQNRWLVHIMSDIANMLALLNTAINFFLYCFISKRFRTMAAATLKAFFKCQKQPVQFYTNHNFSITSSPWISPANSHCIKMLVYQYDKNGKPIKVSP

[2] = target: T2, Probable G-protein coupled receptor 139 (Homo sapiens) (UniProt Q6DWJ6); experiment: Agonist activity at human GPR139 expressed in CHO-K1 cells assessed as increase in calcium flux by calcium 5 dye based FLIPR assay relative to JNJ63533054; assay type: functional, cell-based; conditions: filed as agonist
T2 sequence (whole entry): T1 sequence (Q6DWJ6 whole entry)

[3] = target: T3, Probable G-protein coupled receptor 139 (Rattus norvegicus, UniProt P0C0W8); experiment: Agonist activity at rat GPR139 expressed in CHO-K1 cells assessed as increase in calcium flux by calcium 5 dye based FLIPR assay; assay type: cell-based
T3 sequence (P0C0W8 whole entry): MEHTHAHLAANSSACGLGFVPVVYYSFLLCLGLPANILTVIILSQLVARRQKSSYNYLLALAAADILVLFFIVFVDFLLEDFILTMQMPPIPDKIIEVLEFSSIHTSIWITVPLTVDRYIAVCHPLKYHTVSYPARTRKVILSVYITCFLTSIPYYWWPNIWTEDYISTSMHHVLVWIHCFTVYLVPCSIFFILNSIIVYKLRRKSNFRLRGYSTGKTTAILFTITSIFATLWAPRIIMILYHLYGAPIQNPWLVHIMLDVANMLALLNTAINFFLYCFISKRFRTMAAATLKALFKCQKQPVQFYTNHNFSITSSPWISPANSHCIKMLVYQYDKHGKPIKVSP

[4] = target: T4, Probable G-protein coupled receptor 139 (Rattus norvegicus) (UniProt P0C0W8); experiment: Agonist activity at rat GPR139 expressed in CHO-K1 cells assessed as increase in calcium flux by calcium 5 dye based FLIPR assay relative to JNJ63533054; assay type: cell-based
T4 sequence (whole entry): T3 sequence (P0C0W8 whole entry)

[5] = target: T1, Probable G-protein coupled receptor 139; experiment: Agonist activity at human GPR139 expressed in CHO-K1 cells assessed as induction of beta-arrestin 2 recruitment incubated for 90 mins by PathHunter assay; assay type: cell-based
[6] = target: T2, Probable G-protein coupled receptor 139 (Homo sapiens); experiment: Agonist activity at human GPR139 expressed in CHO-K1 cells assessed as induction of beta-arrestin 2 recruitment incubated for 90 mins by PathHunter assay relative to JNJ63533054; assay type: cell-based

Row | EC50 ([1]; cho-k1) [nM] | Emax [2] [%] | EC50 ([3]; cho-k1) [nM] | Emax [4] [%] | EC50 ([5]; cho-k1) [nM] | Emax ([6]; filed as agonist) [%] | EC50 [1] [nM] | EC50 [3] [nM] | Emax ([4]; filed as agonist) [%] | EC50 [5] [nM] | Emax [6] [%] | SMILES
1 | 1 | > 80 | 1 | 25 | 10 | 50 | – | – | – | – | – | C[C@H](NC(=O)Cn1nc2ccccn2c1=O)c1ccc(C(F)(F)F)cc1
2 | – | > 80 | – | – | 1 | > 80 | < 1 | < 1 | 50 | – | – | Cc1ccc2nn(CC(=O)N[C@@H](C)c3ccc(OC(F)(F)F)cc3)c(=O)n2c1
3 | – | > 80 | 1 | – | 10 | > 80 | < 1 | – | > 80 | – | – | C[C@H](NC(=O)Cn1nc2c(NC3COC3)ccnn2c1=O)c1ccc(Cl)c(F)c1
4 | 1 | > 80 | – | 25 | – | 50 | – | ≥ 100 | – | ≥ 100 | – | C[C@H](NC(=O)Cn1nc2cccc(N3CCN(C)CC3)n2c1=O)c1ccc(OC(F)(F)F)cc1
5 | 1 | > 80 | 1 | – | 10 | 50 | – | – | 50 | – | – | C[C@H](NC(=O)Cn1nc2cccnn2c1=O)c1ccc(Cl)c(Cl)c1
6 | – | > 80 | – | – | 1 | > 80 | < 1 | < 1 | > 80 | – | – | C[C@H](NC(=O)Cn1nc2c(C3CC3)ccnn2c1=O)c1ccc(Cl)c(F)c1
7 | – | 50 | – | < 25 | – | – | ≥ 100 | ≥ 100 | – | ≥ 100 | 25 | CC(NC(=O)Cn1nc2ccccn2c1=O)c1ncc(Cl)cc1F (configuration not stated)
8 | 10 | 50 | – | – | – | > 80 | – | ≥ 100 | 50 | ≥ 100 | – | C[C@H](NC(=O)Cn1nc2cc(OC3CN(C)C3)ccn2c1=O)c1ccc(OC(F)(F)F)cc1
9 | – | 50 | 1 | – | – | 50 | < 1 | – | 25 | < 1 | – | COc1ccc2nn(CC(=O)N[C@@H](C)c3ccc(OC(F)(F)F)cc3)c(=O)n2c1
10 | – | > 80 | 1 | – | – | 50 | < 1 | – | > 80 | ≥ 100 | – | C[C@H](NC(=O)Cn1nc2ncc(Cl)cn2c1=O)c1ccc(Cl)c(F)c1
11 | 1 | > 80 | 10 | – | – | – | – | – | > 80 | ≥ 100 | 25 | C[C@H](NC(=O)Cn1nc2c(N3CCC34CNC4)cccn2c1=O)c1ccc(Cl)c(F)c1
12 | 1 | > 80 | 1 | – | – | 50 | – | – | 50 | ≥ 100 | – | Cc1cc(Cl)ccc1[C@H](C)NC(=O)Cn1nc2cccnn2c1=O
13 | – | > 80 | 1 | – | 1 | 50 | < 1 | – | 50 | – | – | C[C@H](NC(=O)Cn1nc2ccc(F)cn2c1=O)c1ccc(OC(F)(F)F)cc1
14 | – | > 80 | 1 | – | – | 50 | < 1 | – | 50 | < 1 | – | COc1ccc2nn(CC(=O)N[C@@H](C)c3ccc(Cl)c(F)c3)c(=O)n2n1
15 | – | > 80 | – | – | 1 | > 80 | < 1 | < 1 | > 80 | – | – | CNc1cccn2c(=O)n(CC(=O)N[C@@H](C)c3ccc(C)cc3)nc12
16 | – | > 80 | – | – | 1 | 50 | < 1 | < 1 | 50 | – | – | Cc1ccc([C@H](C)NC(=O)Cn2nc3cc(C)ccn3c2=O)cc1
17 | 1 | > 80 | 1 | – | – | > 80 | – | – | > 80 | ≥ 100 | – | C[C@H](NC(=O)Cn1nc2cc(N3CCC[C@@H](O)C3)ccn2c1=O)c1ccc(OC(F)(F)F)cc1
18 | – | > 80 | – | – | 1 | 50 | < 1 | < 1 | 50 | – | – | Cc1ccc([C@H](C)NC(=O)Cn2nc3ccc(C)cn3c2=O)cc1
19 | – | > 80 | 1 | 25 | 1 | – | < 1 | – | – | – | 25 | C[C@H](NC(=O)Cn1nc2c(NCC(F)F)ccnn2c1=O)c1ccc(OC(F)(F)F)cc1

Row | EC50 ([1]; cho-k1) [nM] | Emax [2] [%] | EC50 ([3]; cho-k1) [nM] | Emax [4] [%] | EC50 ([5]; cho-k1) [nM] | Emax ([6]; filed as agonist) [%] | EC50 [1] [nM] | EC50 [3] [nM] | Emax ([4]; filed as agonist) [%] | EC50 [5] [nM] | Emax [6] [%] | SMILES
20 | 1 | 50 | 1 | – | – | > 80 | – | – | 50 | ≥ 100 | – | COC1CCN(c2ccn3c(=O)n(CC(=O)N[C@@H](C)c4ccc(OC(F)(F)F)cc4)nc3c2)CC1
21 | 1 | > 80 | 1 | – | – | 50 | – | – | 50 | ≥ 100 | – | Cc1ccc([C@H](C)NC(=O)Cn2nc3c(F)cccn3c2=O)cc1
22 | 1 | > 80 | – | < 25 | – | 25 | – | ≥ 100 | – | ≥ 100 | – | C[C@H](NC(=O)Cn1nc2ncccn2c1=O)c1ccc(OC(F)(F)F)c(F)c1
23 | – | > 80 | – | – | – | – | ≥ 100 | < 1 | 50 | ≥ 100 | 25 | C[C@@H](NC(=O)Cn1nc2ccccn2c1=O)c1ccc(Cl)c(F)c1
24 | – | > 80 | – | – | 1 | 50 | < 1 | < 1 | 50 | – | – | C[C@H](NC(=O)Cn1nc2ccc(F)cn2c1=O)c1ccc(Cl)cc1
25 | – | > 80 | 1 | – | 10 | > 80 | < 1 | – | > 80 | – | – | Cc1ccnn2c(=O)n(CC(=O)N[C@@H](C)c3ccc(Cl)c(F)c3)nc12
26 | – | > 80 | – | – | 1 | > 80 | < 1 | < 1 | > 80 | – | – | C[C@H](NC(=O)Cn1nc2cc(Cl)ccn2c1=O)c1ccc(Cl)c(F)c1
27 | – | > 80 | 1 | – | 1 | 50 | < 1 | – | > 80 | – | – | C[C@H](NC(=O)Cn1nc2cc(Cl)cnn2c1=O)c1ccc(Cl)c(F)c1
28 | 1 | > 80 | – | – | 1 | > 80 | – | < 1 | > 80 | – | – | C[C@H](NC(=O)Cn1nc2cc(NC3COC3)ccn2c1=O)c1ccc(Cl)c(F)c1
29 | 1 | > 80 | 1 | – | 1 | – | – | – | 50 | – | 25 | Cc1ccc2nn(CC(=O)N[C@@H](C)c3ccc(Cl)cc3)c(=O)n2n1
30 | – | > 80 | 1 | – | 10 | > 80 | < 1 | – | > 80 | – | – | Cc1ccc([C@H](C)NC(=O)Cn2nc3c(C)ccnn3c2=O)cc1F
31 | – | 50 | 10 | 25 | 10 | – | ≥ 100 | – | – | – | 25 | COc1ccn2c(=O)n(CC(=O)N[C@@H](C)c3c(C)cc(C)cc3C)nc2c1
32 | – | > 80 | – | – | 1 | 50 | < 1 | < 1 | 50 | – | – | Cc1ccc([C@H](C)NC(=O)Cn2nc3ccc(F)cn3c2=O)cc1F
33 | 1 | > 80 | – | 25 | – | 50 | – | ≥ 100 | – | ≥ 100 | – | Cc1cc(Cl)ccc1[C@H](C)NC(=O)Cn1nc2ncccn2c1=O
34 | – | > 80 | 1 | – | 1 | > 80 | < 1 | – | 50 | – | – | C[C@H](NC(=O)Cn1nc2ccc(C#N)cn2c1=O)c1ccc(Cl)c(F)c1
35 | 1 | > 80 | – | – | – | 50 | – | ≥ 100 | 50 | ≥ 100 | – | Cc1cnn2c(=O)n(CC(=O)N[C@@H](C)c3ccc(OC(F)(F)F)cc3)nc2c1
36 | – | > 80 | 10 | – | 1 | 50 | < 1 | – | 50 | – | – | C[C@H](NC(=O)Cn1nc2ncc(C3CC3)cn2c1=O)c1ccc(Cl)c(F)c1
37 | – | > 80 | – | 25 | – | – | < 1 | ≥ 100 | – | < 1 | 25 | COc1ccc2nn(CC(=O)N[C@@H](C)c3ccc(Cl)cc3)c(=O)n2n1
